Blank lines part the entries; values can stand above or below the molecule they belong to. No end group written: not given here.
Tests used:
CobB = molecular target: T1, CobB (Escherichia coli, UniProt P75960); test: ESI-MS of V3 expressed in E. coli with NAM (CobB deacylation); assay type: cell-based
T1 construct: endogenous in cells; host or cells: E. coli DH10B
Procedure: Since nicotinamide (NAM) is a known inhibitor of the sirtuin family of enzymes, I expressed V3 in the presence of 20 mM NAM.
However, the V3 protein expression level was severely attenuated in the presence of 20 mM NAM (data not shown). Therefore, I attempted several lower NAM concentrations and assessed the purified V3 protein using ESI-MS. […] Thus, 10 mM NAM was added to the culture medium for the subsequent expression of V3 in E. coli.
DH10B cells harboring pEVOL-KfuRS and pBad-V3-2 plasmid were cultured in LB plus corresponding antibiotics. Protein expression was induced by adding 0.2% arabinose, 10 mM NAM, and 1 mM Kfu when O.D. 600 reached 0.4. After expression at 37° C. for 20 h, cells were harvested and washed with PBS. Protein purification was the same as sfGFP150Kfu except that 10 mM NAM was added to lysis buffer to prevent CobB deacylation. V3C was expressed and purified the same as V3.

AF9 protein = test: FRAP of AF9-sfGFP in HEK 293T cells (chromatin binding of AF9); assay type: cell-based, human
Description: In one embodiment, fluorescence recovery after photobleaching (FRAP) may be used to analyze diffusion and binding of proteins in living cells. It has also been used to assess the cellular efficiency of bromodomain inhibitors in living cells.
In the FRAP experiments, the protein of interest is genetically tagged with a fluorescent protein (e.g., GFP) and expressed inside the cell. Then a portion of the fluorescent-tagged protein are photobleached by an intense laser pulse, and the fluorescence recovery of that photobleached region, which is caused by the migration of fluorescent-tagged proteins back into the bleached area, is monitored over time (FIG. 27a). A fluorescence recovery curve can be generated by plotting the fluorescence intensity with time, and the half time (t1/2), which is the time that the fluorescence intensity takes to recover to half, could also be calculated (FIG. 27b).
Since AF9 protein was reported to associate with chromatin by its YEATS domain, we reasoned that the V3 inhibitor would reduce the binding of AF9 to chromatin and increase its mobility. To test this hypothesis, I fused sfGFP to the C-terminal of AF9 protein and replaced the C-terminal sfGFP of V3-NLS and V3C-NLS to a red fluorescence mCherry protein to avoid fluorescence overlap in FRAP experiments. […]
HEK 293T cells were seeded in 3.5 cm confocal dish at a density of 4-6×10^5 cells per well in 2 mL complete growth medium and let them reach 60-80% confluency at the time of transfection. […] An argon laser (488 nm) was used for photobleaching and fluorescence imaging of sfGFP. The detector was set to detect fluorescence between 500 and 550 nm. […] Fluorescence recovery of sfGFP was monitored by a time series imaging.
The average fluorescence intensity was measured for three regions at each imaging time point, a bleached region (Fbl), a non-bleached reference region (Fref) to correct for the FRAP curve for photofading caused by imaging, the location of reference region should be as far apart as possible from the bleached region. […]

AF9 YEATS domain (human) = AF9 YEATS domain (human) (UniProt P42568); test: ITC, 25° C., 300 µM V3 titrated into 30 µM AF9 YEATS domain
AF9 YEATS domain = molecular target: T2, AF9 YEATS domain (Homo sapiens, UniProt P42568); test: Isothermal titration calorimetry (ITC) with AF9 YEATS domain; assay type: binding; settings: 25° C.
T2 sequence (P42568 1-138 limits assumed): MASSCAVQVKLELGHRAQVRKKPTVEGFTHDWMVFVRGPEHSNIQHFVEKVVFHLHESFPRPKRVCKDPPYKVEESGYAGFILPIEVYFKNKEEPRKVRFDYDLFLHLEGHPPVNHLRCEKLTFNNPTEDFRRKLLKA
Procedure: Next, I tested whether V3 protein could bind to the YEATS domains and act as a YEATS domain inhibitor. Isothermal titration calorimetry (ITC) was performed to determine the dissociation constant (Kd) between V3 and all four YEATS domain-containing proteins in humans (i.e. AF9, ENL, Gas41, and YEATS2).
ITC was first performed with V3 protein and the AF9 YEATS domain.
Experiments were conducted at 25° C. on a MicroCal PEAQ-ITC titration calorimeter (MicroCal). The buffer for the titration is (150 mM NaCl, 50 mM HEPES, 1 mM TCEP, pH 7.5). Proteins were dialyzed to the titration buffer for overnight before the experiment. The reaction cell contained 200 μL of 30 μM YEATS domain proteins, which was titrated with 300 μM V3 or V3C proteins (10-fold higher than the YEATS domain protein concentration used). The titration contained 20 injections, first 0.5 μL, and all subsequent injections of 2 μL. The binding isotherm was fit with MicroCal PEAQ-ITC analysis software, using a single set of independent sites to determine the thermodynamic dissociation constants and stoichiometry.

V3-GAL4/AF9-VP64 complex = molecular target: T3, V3-GAL4/AF9-VP64 complex (Homo sapiens, UniProt P42568); test: Luciferase-based two-hybrid assay (V3-GAL4 bait, AF9-VP64 prey); assay type: cell-based; settings: V3-GAL4 bait with AF9-VP64 prey, normalized to V3C-GAL4
T3 construct: expressed in transfected cells; host or cells: HEK 293T
T3 sequence (P42568 1-568): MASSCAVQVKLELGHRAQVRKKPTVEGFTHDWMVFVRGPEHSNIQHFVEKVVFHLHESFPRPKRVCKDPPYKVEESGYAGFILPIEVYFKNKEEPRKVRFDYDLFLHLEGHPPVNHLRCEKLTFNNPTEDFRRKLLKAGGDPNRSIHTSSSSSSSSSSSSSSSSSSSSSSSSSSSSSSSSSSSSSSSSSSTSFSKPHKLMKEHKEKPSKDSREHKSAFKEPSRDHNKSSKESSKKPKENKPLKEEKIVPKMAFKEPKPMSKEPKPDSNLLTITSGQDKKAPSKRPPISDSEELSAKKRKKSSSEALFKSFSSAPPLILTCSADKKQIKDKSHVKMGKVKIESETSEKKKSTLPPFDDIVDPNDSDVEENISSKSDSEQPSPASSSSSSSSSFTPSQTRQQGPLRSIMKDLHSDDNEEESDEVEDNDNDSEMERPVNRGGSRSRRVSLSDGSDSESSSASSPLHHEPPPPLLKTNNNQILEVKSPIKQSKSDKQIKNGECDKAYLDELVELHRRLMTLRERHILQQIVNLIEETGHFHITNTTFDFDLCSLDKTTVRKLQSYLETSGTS
Procedure: FIG. 34A-34D Luciferase-based two hybrid assay. (A) Schematic of the Luciferase-based two hybrid assay. (B) Schematic showing V3-GAL4 and V3C-GAL4 fusion proteins. (C) Immunoblotting analysis the expression of V3-GAL4 and V3C-GAL4 in the presence or absence of 1 mM Kfu in HEK 293T cells. (D) Relative luciferase signal of V3-GAL4 or V3C-GAL4 ‘bait’ in the presence of AF9-VP64 ‘prey’ protein, and with the addition of different concentrations of iMLLT. The luminescence of all the samples was normalized to the V3C-GAL4 sample. Error bars represent SEM from three biological replicates.
To solve the problems in current cell-based methods, as well as develop a robust cell-based technology for the in vivo screening and validation of YEATS domain inhibitors. We sought out to take advantage of the well-developed luciferase-based two-hybrid assay. In the two-hybrid assay, the genetically encoded YEATS domain probe was fused with a GAL4 DNA binding domain and served as ‘bait’, while a transcription activation domain (VP64) was linked to AF9 protein and acted as ‘prey’ (FIG. 34a, b, c). […]

T1 sequence (P75960 whole entry): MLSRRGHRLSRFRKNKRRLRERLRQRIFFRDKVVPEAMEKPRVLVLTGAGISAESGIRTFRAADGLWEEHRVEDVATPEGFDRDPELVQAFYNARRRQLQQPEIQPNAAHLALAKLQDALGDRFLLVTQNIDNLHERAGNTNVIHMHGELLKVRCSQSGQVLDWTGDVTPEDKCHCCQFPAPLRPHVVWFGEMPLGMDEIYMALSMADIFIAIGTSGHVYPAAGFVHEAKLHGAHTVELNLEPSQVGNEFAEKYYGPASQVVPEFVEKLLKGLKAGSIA

Molecule: NC(=O)c1cccnc1 [NAM, nicotinamide]
- inhibition of the deacylation activity of CobB (CobB; 10 mM NAM): sufficient to inhibit
- inhibition of the deacylation activity of CobB (CobB; 20 mM NAM): completely inhibits

Molecule: O=C(CCCCCCC(=O)Nc1ccccc1)NO [SAHA, suberoylanilide hydroxamic acid]
- half recovery time (t1/2) of AF9-sfGFP (AF9 protein; SAHA 2.5 μM for 18 hours before FRAP, untreated 2.5±0.1 seconds): 4.7 ± 0.2 s
- final fluorescence (fluorescence at plateau), of the initial intensity (AF9 protein; SAHA-treated cells, untreated 90%): 75%

- Kd (AF9 YEATS domain (human)): 2.35 µM
Molecule: V3 protein (genetically encoded YEATS domain inhibitor V3; histone H3 (4-13) with 2-furancarbonyl lysine at K9 fused to sfGFP and 6×His tag) (designed binder)

Molecule: V3-NLS (mCherry): V3-NLS with C-terminal sfGFP replaced by red fluorescence mCherry protein (KQTARKSTGGHHHHHHKRPAATKKAGQAKKKKL; also: C-terminal mCherry fusion (carrier not in chain))
- half recovery time (t1/2) of AF9-sfGFP (AF9 protein; inhibitor co-expressed, 2.5 μM SAHA added to all groups, no inhibitor control 4.7±0.2 s): 3.1 ± 0.2 s

- dissociation constant (Kd) (AF9 YEATS domain): no detectable binding
Molecule: V3C: control inhibitor: H3 (4-13) with a normal lysine at the H3 K9 site fused to N-terminal of sfGFP (KQTARKSTGG; also: C-terminus fused to sfGFP)

- activation level of luciferase (V3-GAL4/AF9-VP64 complex): around 20 folds
B1: V3-GAL4: genetically encoded YEATS domain probe fused with a GAL4 DNA binding domain, 'bait' (protein)
chain: KQTARKSTGGMKLLSSIEQACDICRLKKLKCSKEKPKCAKCLKNNWECRYSPKTKRSPLTRAHLTEVESRLERLEQLFLLIFPREDLDMILKMDSLQDIKALLTGLFVQDNVNKDAVTDRLASVETDMPLTLRQHRISATSSSEESSNKGQRQLTVS
